Assay results taken from patent US5135936A, “Isomers of 1-azabicyclo[2.2.2]oct-3-yl methyl 1,4-dihydro-2,6-dimethyl-4-(3-nitrophenyl)-3,5-pyridinediacarboxylic and their use as calcium antagonists” (Marion Merrell Dow Inc., priority 1991, dated 1992).
Where a name gives a salt, the structure may show the parent alone.

Columns and labels:
[1] = tested on: [3H]-nitrendipine binding; settings: rank among the enantiomers, in words; cited from earlier work
[2] = in words; cited from earlier work
Guinea Pig Ileum = target: T1, Guinea Pig Ileum (Cavia porcellus, UniProt O35505); experiment: Calcium Channel Antagonist Activity in Guinea Pig Isolated Ileal Smooth Muscle (inhibition of Ca++ evoked contractions); settings: concentration producing a two-fold rightward shift in the control Ca++ curve; KCl-depolarized (80 mM) longitudinal smooth muscle
T1 construct: The longitudinal smooth muscle is carefully separated from the underlying circular muscle layer; from tissue; host or cells: guinea pig ileum (terminal 10 cm discarded), isolated longitudinal smooth muscle
T1 sequence (O35505 whole entry): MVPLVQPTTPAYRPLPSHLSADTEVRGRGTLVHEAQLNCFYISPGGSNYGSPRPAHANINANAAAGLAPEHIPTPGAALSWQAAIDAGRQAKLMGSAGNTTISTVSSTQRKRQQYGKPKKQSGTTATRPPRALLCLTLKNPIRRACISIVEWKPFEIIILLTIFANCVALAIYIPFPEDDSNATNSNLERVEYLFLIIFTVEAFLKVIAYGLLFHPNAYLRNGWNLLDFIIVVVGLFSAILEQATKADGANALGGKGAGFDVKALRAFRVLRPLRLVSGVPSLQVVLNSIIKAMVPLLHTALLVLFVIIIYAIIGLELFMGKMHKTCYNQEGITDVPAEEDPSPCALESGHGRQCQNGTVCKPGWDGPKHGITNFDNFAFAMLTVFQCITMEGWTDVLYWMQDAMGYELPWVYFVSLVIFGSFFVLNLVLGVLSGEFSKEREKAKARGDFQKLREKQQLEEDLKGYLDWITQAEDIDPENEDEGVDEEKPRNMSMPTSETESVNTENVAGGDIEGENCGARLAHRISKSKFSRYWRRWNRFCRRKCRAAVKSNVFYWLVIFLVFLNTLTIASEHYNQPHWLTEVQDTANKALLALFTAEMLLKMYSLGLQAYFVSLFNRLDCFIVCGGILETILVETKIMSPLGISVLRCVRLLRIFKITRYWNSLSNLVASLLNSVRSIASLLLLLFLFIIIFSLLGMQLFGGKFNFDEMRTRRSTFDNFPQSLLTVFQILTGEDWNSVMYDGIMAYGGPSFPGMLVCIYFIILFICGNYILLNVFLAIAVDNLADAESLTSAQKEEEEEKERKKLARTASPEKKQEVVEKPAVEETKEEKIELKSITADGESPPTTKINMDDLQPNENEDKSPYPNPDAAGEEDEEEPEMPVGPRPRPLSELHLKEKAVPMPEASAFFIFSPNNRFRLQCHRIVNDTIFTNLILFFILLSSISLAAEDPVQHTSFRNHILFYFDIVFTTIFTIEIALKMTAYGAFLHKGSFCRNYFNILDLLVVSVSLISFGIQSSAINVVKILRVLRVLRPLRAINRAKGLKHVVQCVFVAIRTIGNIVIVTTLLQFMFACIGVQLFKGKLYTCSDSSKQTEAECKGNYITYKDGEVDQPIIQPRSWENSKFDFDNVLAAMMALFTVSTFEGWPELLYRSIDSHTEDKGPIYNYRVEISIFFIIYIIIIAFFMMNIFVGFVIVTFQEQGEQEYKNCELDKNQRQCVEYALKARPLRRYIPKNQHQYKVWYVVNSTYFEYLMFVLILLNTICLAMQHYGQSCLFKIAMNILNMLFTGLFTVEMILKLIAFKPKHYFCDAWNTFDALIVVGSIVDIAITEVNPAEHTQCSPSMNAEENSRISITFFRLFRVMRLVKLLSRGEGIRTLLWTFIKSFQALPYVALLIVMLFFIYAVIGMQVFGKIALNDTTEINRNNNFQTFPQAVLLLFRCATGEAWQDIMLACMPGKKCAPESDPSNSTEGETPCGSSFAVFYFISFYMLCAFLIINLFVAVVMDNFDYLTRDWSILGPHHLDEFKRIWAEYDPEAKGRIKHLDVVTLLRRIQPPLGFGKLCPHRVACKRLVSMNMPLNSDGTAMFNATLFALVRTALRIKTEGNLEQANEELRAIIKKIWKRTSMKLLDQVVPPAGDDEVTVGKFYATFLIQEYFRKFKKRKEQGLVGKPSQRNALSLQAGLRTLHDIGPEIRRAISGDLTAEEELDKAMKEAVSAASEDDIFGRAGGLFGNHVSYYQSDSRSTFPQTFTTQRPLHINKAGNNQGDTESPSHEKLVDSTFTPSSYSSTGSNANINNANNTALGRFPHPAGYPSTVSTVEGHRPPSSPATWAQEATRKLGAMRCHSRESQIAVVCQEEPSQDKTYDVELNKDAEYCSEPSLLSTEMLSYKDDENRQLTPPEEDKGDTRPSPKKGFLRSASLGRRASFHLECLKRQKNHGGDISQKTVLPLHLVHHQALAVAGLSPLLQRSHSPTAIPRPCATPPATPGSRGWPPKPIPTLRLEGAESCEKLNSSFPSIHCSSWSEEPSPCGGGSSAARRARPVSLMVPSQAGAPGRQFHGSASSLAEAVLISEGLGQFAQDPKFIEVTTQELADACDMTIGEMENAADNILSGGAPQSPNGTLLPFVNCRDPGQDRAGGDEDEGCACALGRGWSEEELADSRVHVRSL
Description: Calcium Channel Antagonist Activity in Guinea Pig Isolated Ileal Smooth Muscle
Male albino guinea pigs are sacrificed by stunning and exsanguination. The abdominal cavity is opened and the small intestine is removed, with about 10 cm of the terminal ileum being discarded. The tissue is placed in a dish containing Tyrode's solution of the following composition (in mM): NaCl 136.90; KCl 2.68; NaHCO3 11.90; NaH2 PO4 0.36; MgCl2 0.98; CaCl2 1.77; dextrose 5.55 and cut into three to four segments. A glass rod (6 mm diameter) is carefully inserted into the lumen of each segment and excess connective tissue or fat is removed. The longitudinal smooth muscle is carefully separated from the underlying circular muscle layer by gently stroking a moist cotton swab on a tangent to shallow, longitudinal incisions made parallel to the mesenteric attachment. Using gentle traction, and taking care to keep the segment moist at all times, the preparation is stripped from the remaining length of the ileal segment (Paton, W. D. M.; Zar, M. A.; J. Physiol. 1968, 194, 13.)
Each preparation is suspended in a 10 mL jacketed glass tissue bath containing Tyrode's solution maintained at 37° C. and gassed with 5% CO2 in O2. The preparation is attached by silk thread to a force-displacement transducer. […] The initial resting tension is adjusted to 0.5 g and the preparation equilibrated for 55 min prior to experimentation. At the end of this period, the bathing solution is replaced with Ca^++ free Tyrode's solution. This solution is prepared by omitting CaCl2. The preparation is washed four times in Ca^++ free Tyrode's solution to remove any Ca^++ remaining in the bath, and allowed to equilibrate for a further 20 min.
Experimental Protocol. Concentration-response curves to CaCl2 are obtained using the following procedure. Preparations are exposed to a depolarizing concentration of KCl (80 mM) for 6 min. At the end of this period CaCl2 is added to the bath cumulatively in the concentration range 0.2-8.0 mM. Successive additions of each Ca^++ concentration are carried out only when the previous response has reached a plateau. When the maximum response has been attained the bath is again washed (five times) with Ca^++ free buffer, and the preparation re-equilibrated for approximately 15 min. A second Ca^++ concentration-response curve is then obtained in the same manner. This second curve serves as control for that tissue.
Further curves are obtained in the presence of increasing concentrations of the test drugs. Where appropriate, the test drug is added to the bath immediately following addition of KCl, and 6 minutes later the concentration-response curve to Ca^++ is obtained. Each test preparation is exposed to three different concentrations of a test drug. […]

[3] = target: [3H]-Nitrendipine Binding in Rat Cortical Membranes; experiment: Inhibition of [3H]-Nitrendipine Binding in Rat Cortical Membranes; settings: rat cortex, room temperature, 90 min
Procedure: [3H]-Nitrendioine Bindino in Rat Cortex
Animals were decapitated and the cortical tissue was dissected, weighed and polytroned in about 20 volumes (w/v) of ice cold buffer ([…] TRIS HCl, pH 7.5). The tissue was then washed 3 times via centrifugation (20,000 rpm for 10 min at 4° C.) with subsequent resuspension in fresh buffer. The final pellet was resuspended prior to the assay at 22.5 mg/mL […]. Incubations were performed at room temperature for 90 min in each assay. These incubations were done in triplicate in a final assay volume of 2.0 mL. Non-specific binding was determined by the addition of 1 uM nifedipine for the [3H]-nitrendipine assay each to triplicate set of tubes. Reactions in each assay were terminated by filtration using a Brandel Cell Harvester followed by washing with ice cold buffer.
For preliminary evaluations in each assay, all compounds were examined at four log concentrations (1 nM-1 uM). full displacement curves were generated on all compounds showing inhibition of specific binding of 50% or greater at a 1 uM drug concentration. Standard reference compounds were included and evaluated in each assay. Analysis of data was done using both the EBDA Scafit program and HP-11C linear regression.

[3H]-yohimbine binding = rank among the enantiomers, in words; cited from earlier work
[4] = tested on: spontaneously hypertensive rats; settings: rank among the enantiomers, in words; cited from earlier work

**Q.** For COC(=O)C1=C(C)NC(C)=C(C(=O)OCCN(C)C[C@@H]2COc3ccccc3O2)[C@@H]1c1cccc([N+](=O)[O-])c1 [2-[N-methyl-N-[(2,3-dihydro-1,4-benzodioxin-2-yl)methyl]amino]ethyl methyl 2,6-dimethyl-4-(3-nitrophenyl)-1,4-dihydropyridine-3,5-dicarboxylate], which “inhibition of [3H]-nitrendipine binding” value [1] is on record?
**A.** most potent

**Q.** Which “Ca++ channel blocking activity as determined by inhibition of [3H]-nitrendipine binding” value [1] does the source give for COC(=O)C1=C(C)NC(C)=C(C(=O)O[C@H]2CCN(Cc3ccccc3)C2)[C@H]1c1cccc([N+](=O)[O-])c1 [(S,S)-enantiomer of 1-benzyl-3-pyrrolidinyl ester] here?
**A.** greatest

**Q.** For COC(=O)C1=C(C)NC(C)=C(C(=O)OC(C)C)[C@@H]1c1cccc2nonc12 [(R)-enantiomer of PN 200-110, isopropyl methyl 4-(2,1,3-benzoxadiazol-4-yl) -1,4-dihydro-2,6-dimethyl-3,5-pyridinedicarboxylate], which “blood flow to the heart and brain” value [2] is on record?
**A.** increased

**Q.** And the cardiac output [2]?
**A.** increased

**Q.** What about the “effect on blood pressure” value [2] of the same molecule?
**A.** almost no effect

**Q.** And the “effect on heart rate” value [2]?
**A.** almost no effect

**Q.** And the “potency in the subendocardium of the left ventricle” value [2]?
**A.** surprisingly potent

**Q.** Which Kb (Guinea Pig Ileum) does the source give for COC(=O)C1=C(C)NC(C)=C(C(=O)O[C@H]2CN3CCC2CC3)[C@H]1c1cccc([N+](=O)[O-])c1 [(S,R)-I, (S,R)-1-azabicyclo[2.2.2]oct-3-yl methyl 1,4-dihydro-2,6-dimethyl-4-(3-nitrophenyl)-3,5pyridinedicarboxylate, hydrochloride] here?
**A.** 3160 nM

**Q.** For COC(=O)C1=C(C)NC(C)=C(C(=O)O[C@H]2CN3CCC2CC3)[C@@H]1c1cccc([N+](=O)[O-])c1 [(R,R)-I, (R,R)-1-Azabicyclo[2.2.2]oct-3-yl methyl 1,4-dihydro-2,6-dimethyl-4-(3-nitrophenyl)-3,5-pyridinedicarboxylate], which Ki [3] is on record?
**A.** 11 nM

**Q.** And the Kb (Guinea Pig Ileum)?
**A.** 34 nM

**Q.** With COC(=O)C1=C(C)NC(C)=C(C(=O)OCCN(C)C[C@H]2COc3ccccc3O2)[C@H]1c1cccc([N+](=O)[O-])c1 [2-[N-methyl-N-[(2,3-dihydro-1,4-benzodioxin-2-yl)methyl]amino]ethyl methyl 2,6-dimethyl-4-(3-nitrophenyl)-1,4-dihydropyridine-3,5-dicarboxylate] as the molecule, how does the “inhibition of [3H]-yohimbine binding” value ([3H]-yohimbine binding) read?
**A.** most potent

**Q.** For COC(=O)C1=C(C)NC(C)=C(C(=O)O[C@@H]2CN3CCC2CC3)[C@H]1c1cccc([N+](=O)[O-])c1 [(S,S)-I, (S,S)-1-Azabicyclo[2.2.2]oct-3-yl methyl 1,4-dihydro-2,6-dimethyl-4-(3-nitrophenyl)-3,5-pyridinedicarboxylate], which Kb (Guinea Pig Ileum) is on record?
**A.** 1620 nM

**Q.** With COC(=O)C1=C(C)NC(C)=C(C(=O)O[C@H]2CN3CCC2CC3)[C@H]1c1cccc([N+](=O)[O-])c1 [(R,S)-I, (R,S)-1-Azabicyclo[2.2.2]oct-3-yl methyl 1,4-dihydro-2,6-dimethyl-4-(3-nitrophenyl)3,5-pyridinedicarboxylate] as the molecule, how does the Ki [3] read?
**A.** 56 nM

**Q.** What about the Kb (Guinea Pig Ileum) of the same molecule?
**A.** 174 nM

**Q.** Which “Ca++ channel blocking activity as determined by lowering of blood pressure in spontaneously hypertensive rats” value [4] does the source give for COC(=O)C1=C(C)NC(C)=C(C(=O)O[C@H]2CCCN(Cc3ccccc3)C2)[C@H]1c1cccc([N+](=O)[O-])c1 [(S,S)-enantiomer of 1-benzyl-3-piperidinyl ester] here?
**A.** greatest

**Q.** For COC(=O)C1=C(C)NC(C)=C(C(=O)OC(C)C)[C@H]1c1cccc2nonc12 [(S)-enantiomer of PN 200-110, isopropyl methyl 4-(2,1,3-benzoxadiazol-4-yl) -1,4-dihydro-2,6-dimethyl-3,5-pyridinedicarboxylate], which “blood flow to the heart and brain” value [2] is on record?
**A.** increased

**Q.** And the cardiac output [2]?
**A.** increased

**Q.** And the “effect on blood pressure” value [2]?
**A.** lowered

**Q.** And the “effect on heart rate” value [2]?
**A.** lowered
